Laboratory results from patent US20240299352A1, “COMBINATION THERAPIES WITH SETD2 INHIBITORS” (Epizyme, Inc., priority 2021, published 2024).

Tests used:
Assay type in all cases: cell-based
[1] = system: diffuse large B-cell lymphoma (DLBCL) cell lines; assay: Co-treatment combination study with Cpd. No. 15, further cell lines (Table F), CellTiter-Glo viability, Loewe Volume
Protocol: (§1) Mantle cell lymphoma (MCL) and diffuse large B-cell lymphoma (DLBCL) cell line cultures in log-linear growth rate were treated with combinations of Cpd. No. 15 and combination partners according to a co-treatment model. […] No. 15 and the combination partner. […] Each combination was tested in quadruplicate wells. The final concentration of DMSO (vehicle) in the assay was 0.1% v/v. Fifty microliters of cell line suspension were directly dispensed to the assay-ready plates with an automated multichannel dispenser on to 384-well assay-ready plates. Assay plates were incubated for seven days unless otherwise indicated in a humidified atmosphere of 5% CO2 at 37° C. Quantification of the effect of single agents or combinations on cell viability was performed through measurement of cellular adenosine triphosphate (ATP) using a CellTiter-Glo® (Promega, Madison, WI) Luminescent Cell Viability Assay. Luminescence was detected using a SpectraMax M5 microplate reader (Molecular Devices, Sunnyvale, CA). Concentration response plots were generated in GraphPad Prism version 7.0 for Windows, GraphPad Software, (La Jolla, California) and curves fitted to a four-parameter logistic model with variable slope. Percent of inhibition was calculated at each treatment concentration.

HT = assay: Co-treatment combination study with Cpd. No. 15, CellTiter-Glo viability, Loewe Volume; conditions: in combination with Cpd. No. 15, seven days, DLBCL cell line HT
Protocol: as §1

WSUDLCL2 = assay: as above; conditions: in combination with Cpd. No. 15, seven days, DLBCL cell line WSUDLCL2
Protocol: as §1

WILL2 = assay: as above; conditions: in combination with Cpd. No. 15, seven days, DLBCL cell line WILL2
Protocol: as §1

SUDHL8 = assay: as above; conditions: in combination with Cpd. No. 15, seven days, DLBCL cell line SUDHL8
Protocol: as §1

GRANTA519 = assay: as above; conditions: in combination with Cpd. No. 15, seven days, mantle cell lymphoma cell line GRANTA519 (ACC 342)
Protocol: as §1

TOLEDO = assay: as above; conditions: in combination with Cpd. No. 15, seven days, DLBCL cell line TOLEDO
Protocol: as §1

SUDHL4 = assay: as above; conditions: in combination with Cpd. No. 15, seven days, DLBCL cell line SUDHL4
Protocol: as §1

REC1 = assay: as above; conditions: in combination with Cpd. No. 15, seven days, mantle cell lymphoma cell line REC1 (CRL-3004)
Protocol: as §1

WSUNHL = assay: as above; conditions: in combination with Cpd. No. 15, seven days, DLBCL cell line WSUNHL
Protocol: as §1

JEKO1 = assay: as above; conditions: in combination with Cpd. No. 15, seven days, mantle cell lymphoma cell line JEKO1 (CRL-3006)
Protocol: as §1

SUDHL10 = assay: as above; conditions: in combination with Cpd. No. 15; 5-Day Cotreatment; DLBCL cell line SUDHL10
Protocol: as §1

Z138 = assay: as above; conditions: in combination with Cpd. No. 15, seven days, mantle cell lymphoma cell line Z138 (CRL-3001)
Protocol: as §1

SUDHL2 = assay: as above; conditions: in combination with Cpd. No. 15, seven days, DLBCL cell line SUDHL2
Protocol: as §1

RL = assay: as above; conditions: in combination with Cpd. No. 15; 6-Day Cotreatment; DLBCL cell line RL
Protocol: as §1

SUDHL5 = assay: as above; conditions: in combination with Cpd. No. 15, seven days, DLBCL cell line SUDHL5
Protocol: as §1

MAVER1 = assay: as above; conditions: in combination with Cpd. No. 15, seven days, mantle cell lymphoma cell line MAVER1 (CRL-3008)
Protocol: as §1

KARPAS422 = assay: as above; conditions: in combination with Cpd. No. 15, seven days, DLBCL cell line KARPAS422
Protocol: as §1

Pfeiffer = assay: as above; conditions: in combination with Cpd. No. 15, seven days, DLBCL cell line Pfeiffer
Protocol: as §1

DOHH2 = assay: as above; conditions: in combination with Cpd. No. 15, seven days, DLBCL cell line DOHH2
Protocol: as §1

MINO = assay: as above; conditions: in combination with Cpd. No. 15, seven days, mantle cell lymphoma cell line MINO (CRL-3000)
Protocol: as §1

SUDHL6 = assay: as above; conditions: in combination with Cpd. No. 15, seven days, DLBCL cell line SUDHL6
Protocol: as §1

JVM2 = assay: as above; conditions: in combination with Cpd. No. 15, seven days, mantle cell lymphoma cell line JVM2 (CRL-3002)
Protocol: as §1

DB = assay: as above; conditions: in combination with Cpd. No. 15, seven days, DLBCL cell line DB
Protocol: as §1

COc1cccc2c1C(=O)c1c(O)c3c(c(O)c1C2=O)C[C@@](O)(C(=O)CO)C[C@@H]3O[C@H]1C[C@H](N)[C@H](O)[C@H](C)O1 [Doxorubicin, doxorubicin]
Combination effect with Cpd. No. 15 (Loewe Volume class), Ri1 ([1]; co-treatment with Cpd. No. 15, cell line Ri1 (Cat. No. 96090512-1VL)): Synergy (VLoewe>1: synergy)
Combination effect with Cpd. No. 15 (Loewe Volume class), TMD8 ([1]; co-treatment with Cpd. No. 15, cell line TMD8 (Cat. No. M-097)): Additivity (between 1 and −1: additivity)
Combination effect with Cpd. No. 15 (Loewe Volume class), WILL1 ([1]; co-treatment with Cpd. No. 15, cell line WILL1 (Cat. No. ACC 651)): Additivity (between 1 and −1: additivity)
Combination effect (Loewe Volume) HT (HT): Additivity (between 1 and −1: additivity)
Combination effect (Loewe Volume) WSUDLCL2 (WSUDLCL2): Additivity (between 1 and −1: additivity)
Combination effect (Loewe Volume) WILL2 (WILL2): Additivity (between 1 and −1: additivity)
Combination effect (Loewe Volume) SUDHL8 (SUDHL8): Additivity (between 1 and −1: additivity)
Combination effect (Loewe Volume) GRANTA519 (GRANTA519): Additivity (between 1 and −1: additivity)
Combination effect (Loewe Volume) TOLEDO (TOLEDO): Synergy (VLoewe>1: synergy)
Combination effect (Loewe Volume) SUDHL4 (SUDHL4): Additivity (between 1 and −1: additivity)
Combination effect (Loewe Volume) REC1 (REC1): Additivity (between 1 and −1: additivity)
Combination effect (Loewe Volume) WSUNHL (WSUNHL): Additivity (between 1 and −1: additivity)
Combination effect (Loewe Volume) JEKO1 (JEKO1): Additivity (between 1 and −1: additivity)
Combination effect (Loewe Volume) SUDHL10 (SUDHL10): Additivity (between 1 and −1: additivity)
Combination effect (Loewe Volume) Z138 (Z138): Additivity (between 1 and −1: additivity)
Combination effect (Loewe Volume) SUDHL2 (SUDHL2): Additivity (between 1 and −1: additivity)
Combination effect (Loewe Volume) RL (RL): Additivity (between 1 and −1: additivity)
Combination effect (Loewe Volume) SUDHL5 (SUDHL5): Additivity (between 1 and −1: additivity)
Combination effect (Loewe Volume) MAVER1 (MAVER1): Additivity (between 1 and −1: additivity)
Combination effect (Loewe Volume) KARPAS422 (KARPAS422): Additivity (between 1 and −1: additivity)
Combination effect (Loewe Volume) Pfeiffer (Pfeiffer): Additivity (between 1 and −1: additivity)
Combination effect (Loewe Volume) DOHH2 (DOHH2): Additivity (between 1 and −1: additivity)
Combination effect (Loewe Volume) MINO (MINO): Additivity (between 1 and −1: additivity)
Combination effect (Loewe Volume) SUDHL6 (SUDHL6): Synergy (VLoewe>1: synergy)
Combination effect (Loewe Volume) JVM2 (JVM2): Additivity (between 1 and −1: additivity)
Combination effect (Loewe Volume) DB (DB): Additivity (between 1 and −1: additivity)
